Test [1] has as its system THP-1 cells. The experiment in a line: Example D: LPS-triggered THP-1 cell death assay, acute/5-hour and chronic/48-hour. In kind it is cell-based, Human. The note with it: 10 ng/ml LPS, 0.1 μM test compound, 48 hours. Here is the method:
Compounds of the invention were tested at 0.1 μM versus AC in the LPS-triggered THP-1 cell death assay. Both acute/5-hour and chronic/48-hour phases of cell death were assessed. Compounds were screened in batches with DMSO as the negative control and AC as the high activity control.

The subject of test [2] is Cryptococcus neoformans (serotype D). Description: Example K: Cryptococcus neoformans (serotype D) growth inhibition. In kind it is cell-based. The note with it: OD of 48 hour reading, 37° C., tested 4 to 60 μM, XLfit; for IC50: read-out: IC50 (concentration for 50% of inhibition). The procedure: Cryptococcus neoformans (serotype D) were plated in 96 well plates with 144 μl/well of 8×10e5 CFU/ml in YM growth medium. Diluted compounds were then added to each well with concentration ranged from 4 to 60 μM as final concentration in duplicates. The plates were inoculated at 37° C. for total of 48 hours. Two readings of OD at 600 nm were measured after 30 and 48 hour treatments.
• 1. Pick a single colony of Cryptococcus from the YM agar plate using the inoculum loop and inoculate into a 125 ml flask containing 25 ml of YM growth medium. • 2. Incubate at 37° C. with shaking at 220 rpm for 24 hours with loosen lid to allow air in and facilitates growth. • 3. Examine an aliquot of the culture under a microscope for yeast cell morphology and lack of bacterial contamination. • 4. Dilute the overnight culture with YM medium at 1:100 dilution and count the number of cells as 1×10^6 cfu/ml. • 5. Make a final concentration of cells suspension at 8×10^5 cfu/ml in YM medium. • 6. Plate 144 μl/well of 8×10^5 cfu/ml cell suspension on 96-well plates. Part-II: Cryptococcus Growth Inhibition Testing with Compounds • 1. From 10 mM DMSO stock solutions, make serial dilutions of compounds to 0.1, 0.2, 0.3, 0.5, 1.0 and 1.5 mM solution. • 2. Add 6 ul each of diluted compound solutions per well in duplicates. The final concentrations were 0, 4, 8, 12, 20, 40 and 60 micromolar. • 3. Incubated all plates at 37° C. overnight (30 hours) with 150 rpm shaking. • 4. Read absorbance at OD600 for each plate. • 5. Leave plates in 37° C. incubator for another day and read absorbance at OD600 again at 48 hours to ensure the inhibitory effect of the compounds. • 6. Calculated the % inhibition and IC50 of each compound against untreated cells.

Test [3] relates to Cryptococcus neoformans (serotype A). Description: Example L: Cryptococcus neoformans (serotype A) growth inhibition. In kind it is cell-based. The conditions noted are these: OD of 26 hour reading, 30° C., XLfit; for IC50: read-out: IC50, uM (concentration for 50% of inhibition). Here is the method: Cryptococcus neoformans (serotype A) were plated in 96 well plates with 144 μl/well of 5×10e5 CFU/ml in YPD growth medium. Diluted compounds were then added to each well with concentration ranged from 0.05 to 10 μM as final concentration in duplicates. The plates were inoculated at 30° C. Two readings of OD at 600 nm were measured after 18 hr and […] treatments.
C12-imidazol had relative weak activity against Cryptococcus serotype A at low concentration. Data plotted was based on 26 hour reading because 18 hour reading was too low.
• 1. Pick a single colony of Cryptococcus from the Sabouraud Dextrose agar plate using the inoculum loop and inoculate into a 125 ml flask containing 25 ml of YPD growth medium • 2. Incubate at 30° C. with shaking at 220 rpm for 24 hours with loosen lid to allow air in and facilitates growth. • 3. Examine an aliquot of the culture under a microscope for yeast cell morphology and lack of bacterial contamination. • 4. Dilute the overnight culture with YPD medium at 1:100 dilution and count the number of cells as 8×10^6 cfu/ml. • 5. Make a final concentration of cells suspension at 5×10^5 cfu/ml in YPD medium after the stock culture had been stored at 4° C. for 3 days. • 6. Plate 144 μl/well of 5×10^5 cfu/ml cell suspension on 96-well plates. Part-II: Cryptococcus Growth Inhibition Testing with Compounds • 1. From 10 mM DMSO stock solutions, make serial dilutions of compounds to 0.0013, 0.0025, 0.0125, 0.025, 0.05, 0.125 and 0.25 mM solution • 2. Add 6 ul each of diluted compound solutions per well in duplicates. The final concentrations were 0, 0.05, 0.1, 0.5, 1.0, 2.0, 5.0 and 10 micromolar. • 3. Incubated all plates at 30° C. overnight with 175 rpm shaking. • 4. Read absorbance at OD600 after 18 and 26 hours for each plate. • 5. Calculated the % inhibition and IC50 of each compound against the untreated cell.

For test [4], the system named is Candida albicans strain 3153. Description: Example H: Candida albicans growth inhibition (OD 600 nm). The test is classed as cell-based. The essentials:
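Growth inhibition computed as % versus DMSO control from OD600 after ~24 h at 30° C. Inoculum: washed overnight YPD culture of strain 3153 at 3.5×10^4 CFU/ml in YPD; final compound concentrations 0, 5, 10, 16, 22, 30, 40 μM, duplicate wells.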

The test system of test [5] is S. cerevisiae. The experiment in a line: Example I: Saccharomyces cerevisiae growth inhibition (OD 600 nm). In kind it is cell-based. The note with it: 18 hour incubation at 30° C., OD 600 nm, XLfit; for IC50: read-out: IC50, uM (50% inhibition of fungal growth). The procedure:
An overnight culture of S. cerevisiae was dilution in YPD broth to concentration of 40,000/ml and 150 μl/well was plated in 96 well plates. Compounds were then added to each well with concentration ranged from 4 to 50 μM as final concentration. The plates were inoculated at 30° C. overnight with shaking at 220 rpm and absorbance at 600 nm was read after 18 hour incubation.
• 1. One days prior to the inoculum preparation, pick a single colony of S. cerevisiae from the Sabouraud Dextrose Agar plate using the inoculum loop and inoculate into a 50 mL tube containing 10 ml of YPD growth medium • 2. Incubate at 30° C. with shaking at 220 rpm for 24 hours with loosen lid to allow air in and facilitates growth. • 3. Examine an aliquot of the culture under a microscope for yeast cell morphology and lack of bacterial contamination. • 4. Dilute the overnight culture with YPD medium at 1:30 dilution (70 ul to 2.1 ml) and count the number of cells as 4,230,000/ml. • 5. Mix 620 μl of 1:30 dilution and 64.4 ml YPD to make final concentration of 40,000/ml cells • 6. Plated 144 μl/well in four 96-well plates.
• 1. From 10 mM DMSO stock solutions, make serial dilutions of compounds to 0.1, 0.2, 0.3, 0.63 and 1.25 mM solutions • 2. Add 6 μl each of diluted compound solutions per well in duplicates. The final concentrations were 0, 4, 8, 12, 25 and 50 micromolar. • 3. Incubated all plates at 30 C for overnight (˜18 hours) with 220 rpm shaking. • 4. Read absorbance at OD600 for each plate on Spectra Max Plus plate reader. • 5. Calculate the % inhibition of each compound against the DMSO treated cell and plotted.

Test [6] relates to Trichophyton rubrum. The experiment in a line: Example J: Trichophyton rubrum growth inhibition, scoring by eye. The test is classed as cell-based. The conditions noted are these: 6 days at 30° C., tested 6 to 40 μM, read-out: MIC, μM (maximum inhibition concentration, scoring by eye). Here is the method: Trichophyton grown on two agar plates were collected by scraping into 10 ml saline and filtered through 8 μm filters. […] This experiment included some active compounds from previous experiment and added several untested compounds. […] Following table listed the maximum inhibition concentration (MIC) based on scoring by eye. Scrape frozen Trichophyton culture from ATCC vial and suspended in 100 μl PDB, and then plate on a PDA plate. Incubate plate at 30 C for 4 days. The plate was covered almost full. […] Take OD of collected solution at 520 nm and 600 nm: […] Part-II: […] Add 6 μl each of diluted compound solutions per well in triplicates. […] Wrap the plates with […] incubate all plates at 30° C. for 6 days. • Take picture of the plates on KODAK imager with 17 captures of 1.5 sec/capture for total of 25.5 second exposure.

For test [7], the system named is 4T1 murine breast cancer cells. The experiment in a line: Example S: in vitro anticancer screen, 4T1 cells, Wst1. In kind it is cell-based, mouse. The note with it: Mus musculus, 4T1, 18 h, 18 hr, Wst1. The essentials:
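Read-out is Wst1 absorbance (450 nm, reference 630 nm) after roughly 2 hr dye incubation, giving percent cell survival versus vehicle. Before that, compounds at 1 μM or 5 μM were applied for 18 hr to 4T1 cells plated at 1×10^4 per well.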

Test [8] has as its system PC3 human prostate cancer cells. The experiment in a line: Example S: in vitro anticancer screen, PC-3 cells, Wst1. The conditions noted are these: Homo sapiens, PC-3; 0.5 μM, approximately 20 hours, Wst1; read-out: PC-3, percent of cancer cell survival relative to vehicle treated cells. The test is classed as cell-based. Put shortly:
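Values give percent survival relative to vehicle, read by Wst1 absorbance (450/630 nm) after 2 h dye incubation, in triplicate. Cells were seeded at 2×10^4/well and treated about 20 h with compound at 0.4, 0.5 or 2.5 μM, depending on compound.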

In test [9] the test system is PC-3 prostate cancer cells. Description: Example T: sensitisation of PC-3 cells to doxorubicin, oxaliplatin, paclitaxel or vincristine, Wst1. The test is classed as cell-based, human. The note with it: PC-3 cells, 72 hours.

Structures are written as SMILES. ≈ marks a conversion by molar mass, not a printed value. Where two headings read alike, the source gives them in different places.

Turning to `CCCCCCCCCCOc1ccc(CNc2ncnc3ccccc23)cc1` [BN, N-[4-(Decyloxy)benzyl]quinazolin-4-amine], the “Viable cell percent change, Chronic/48-hour, Mean” value in test [1] is 60.91%. Besides, the IC50 in test [2] (Cryptococcus deneoformans) was 1.03 µM; in test [3] (Cryptococcus neoformans) it was 3.73 µM. Also, the MIC in test [3] (Cryptococcus neoformans, read-out: MIC, uM (concentration for maximum - 99% of inhibition)) worked out at 56.1 µM (≈ 22 µg/mL).

For the compound `CCCCCCCCn1cnc2cnc3ccccc3c21` [BP, 1-Octyl-1H-imidazo[4,5-c]quinoline], the MIC in [4] (Candida albicans, 3153, 24 hrs at 30° C., YPD, XLfit, read-out: MIC (uM) (99% of inhibition of fungal growth)) was determined as 90.6 µM (≈ 25.5 µg/mL); in test [5] (Saccharomyces cerevisiae, read-out: MIC, uM (99% of inhibition of fungal growth)) it was 50.8 µM (≈ 14.3 µg/mL); in test [6] (Trichophyton rubrum, 144 h), 12 µM (≈ 3.38 µg/mL). Moreover, the IC50 in test [4] (Candida albicans, 3153, read-out: IC50 (uM) (50% inhibition of fungal growth), 24 hrs at 30° C., YPD, XLfit) is 28.8 µM; in [5] (Saccharomyces cerevisiae) it was 35.6 µM. Also, the viability at 1 µM in [7] (1 μM, read-out: 4T1 1 μM, percent of cancer cell survival relative to vehicle treated cells) was 33.6%. In addition, the viability at 5 µM in [7] (5 μM, read-out: 4T1 5 μM, percent of cancer cell survival relative to vehicle treated cells) was found to be 23.3%. Also, the viability at 0.5 µM in test [8] came out at 50.5%; in test [9] (Homo sapiens, compound 0.5 μM alone, Wst1, vehicle = 100, read-out: No Chemo: percent cell survival), 50.5%. Moreover, the “Doxorubicin 3.5 μM: percent cell survival” value in test [9] (compound 0.5 μM + doxorubicin 3.5 μM, chemotherapy agent alone normalized to 100%) is 79.1%. The “Oxaliplatin 100 μM: percent cell survival” value in test [9] (compound 0.5 μM + oxaliplatin 100 μM, chemotherapy agent alone normalized to 100%) is listed as 113.6%. The “Paclitaxel 50 μM: percent cell survival” value in test [9] (compound 0.5 μM + paclitaxel 50 μM, chemotherapy agent alone normalized to 100%) is 95.1%. Further, in test [9] (compound 0.5 μM + vincristine 100 nM, chemotherapy agent alone normalized to 100%), the “Vincristine 100 nM: percent cell survival” value came to 93%.

Regarding `CCCCCCCCCCCCn1ccnc1` [Compound C12-Im, reference compound], in [5], the “MIC, uM (99% of inhibition of fungal growth)” value came out at 29.04 µM and the IC50 was determined as 15.2 µM. In test [6], the MIC is reported as 18 µM (≈ 4.26 µg/mL). For the same compound, in test [2], the “MIC (concentration for maximum-99% of inhibition)” value came to 20.54 and the IC50 was 1.81 µM. In addition, in test [3], the “MIC, uM (concentration for maximum - 99% of inhibition)” value came out at 10.83 µM and the IC50 is 3.67 µM.

These data come from patent publication US20250034139A1, “AMINE COMPOUNDS HAVING ANTI-INFLAMMATORY, ANTIFUNGAL, ANTIPARASITIC, AND ANTICANCER ACTIVITY” (PHARMA CINQ, LLC, priority 2013, published 2025).
